One assay relates to HDMVE cells. Nature of the assay: Endothelial cell tube formation in Matrigel. To be noted: 0.1, 1 or 100 μM; 18 hours. The class given is cell-based, human. As to the method:
FIG. 21. GSAO perturbs endothelial cell tube formation in Matrigel. Matrigel (100 μl) was added to wells of 96 well plates and allowed to gel for 60 minutes at 37° C. HDMVE cells (10,000 cells per well) in complete media containing 0.1, 1 or 100 μM GSAA or GSAO were seeded onto the Matrigel and the plates were incubated in 5% CO2, 37° C. The phase contrast micrographs were taken after 18 hours incubation.
Endothelial cells arrange into tube-like structures when seeded onto three-dimensional matrices such as the extracellular matrix preparation, Matrigel, or collagen. The tubes can be considered to represent immature blood vessels. Matrigel (100 μl, Becton Dickinson, Bedford, Mass.) was added to wells of 96 well plates (Gibco BRL, Gaithersburg, Md.) and allowed to gel for 60 minutes at 37° C. Human dermal microvascular endothelial (HDMVE) cells were harvested and cultured as described by Stathakis et al (1997), HDMVE cells (8,000 cells per well) in 150 μl of M199 (Gibco BRL, Gaithersburg, Md.) media containing 30% pooled human serum, 50 μg per mL Heparin (Sigma, St. Louis, Mo.), 100 μg per mL Endothelial Cell Growth Supplement (Gibco BRL, Gaithersburg, Md.) and 0.1, 1 or 100 μM GSAA or GSAO were seeded onto the Matrigel and the plates were incubated for 18 hours in 5% CO2, 37° C. Phase contrast micrographs of the wells were collected.

The test system of another assay is Lewis lung tumours. Nature of the assay: Tumour growth in mice, subcutaneous administration. To be noted: 10 mg per kg per day; for inhibition of the rate of Lewis lung tumour growth: subcutaneous. The class given is in vivo, C57Bl6/J mice. On the procedure:
FIG. 25. Inhibition of human fibrosarcoma and murine Lewis lung tumour growth following systemic administration of GSAO. HT1080 or Lewis lung tumours were established in the proximal midline of female 7 to 9 week old SCID or C57Bl6/J mice, respectively. When the tumours were ˜0.1 cm^3 in volume the mice were randomised into two groups (n=5) and treated with either GSAA or GSAO at a dose of 10 mg per kg per day in 0.2 mL of PBS containing 100 mM glycine. The compounds were administered subcutaneously at a site distant from the tumour. Tumour volume and animal weight was measured every 3 days. The GSAO/GSAA HT1080 tumour volume ratio at day 17 of treatment was 0.29 (part A). The GSAO/GSAA Lewis lung tumour volume ratio at day 12 of treatment was 0.29 (part B). The data points and errors represent the mean and SE of the tumour volumes.
Female 7 to 9 week old SCID or C57Bl6/J mice were used (Massachusetts General Hospital, Boston, Mass.). Mice were held in groups of 3 to 5 at a 12 hour day and night cycle and were fed with animal chow and water ad libidum. SCID mice were anaesthetised by inhalation of isoflurane, the dorsal skin shaved and cleaned with ethanol, and a suspension of 2.5×10^6 BxPC-3 or HT1080 cells in 0.2 mL of DMEM was injected subcutaneously in the proximal midline. C57Bl6/J mice with Lewis lung carcinomas of 0.6-1.2 cm^3 volumes were sacrificed and the skin overlying the tumour was cleaned with betadine and ethanol. Tumour tissue was excised under aseptic conditions and a suspension of tumour cells in 0.9% saline was made by passage of tumour tissue through a sieve and a series of sequentially smaller 22- to 30-gauge hypodermic needles. C57Bl6/J mice were anaesthetised and prepared as for SCID mice and a suspension of Lewis lung carcinoma cells in 0.2 mL of saline was injected subcutaneously in the proximal midline. […] The tumours were measured in two diameters and tumour volume was calculated using the relationship, tumour volume=a×b^2×0.52, where a is the longest and b the shortest diameters in cm. […] Tumour volume and animal weight was measured every 3 days. […]

For another assay, the system named is BAE. As to the kind of experiment: Viability of cultured cells, 72 hr. Format: cell-based, bovine. On the procedure: BCE (Folkman et al. 1979), BAE, BxPC-3 (ATCC, Bethesda, Md.), HT1080 (Jiang et al., 1999), 3T3 (ATCC, Bethesda, Md.) and BVSM (Hogg et al., 1997) cells were harvested and cultured as indicated. Cells (0.5 mL of 30,000 or 100,000 cells per mL) were seeded into gelatinized 24-well culture plates (Corning Costar, Corning, N.Y.) in Dulbecco's Modified Eagle's Medium (DMEM, JHR Bioscience, Lenexa, Kans.) containing 10% fetal calf serum (FCS, Intergen Comp., Purchase, N.Y.) and 1% Glutamine Pen-Strep (GPS, Irvine Scientific, Santa Ana, Va.) and allowed to attach for 24 hr in 10% CO2 at 37° C. The media was then replaced with DMEM and 1% GPS containing 0 to 1 mM GSAO or GSAA and either 5% bovine calf serum (BCS, HyClone, Logan, Utah) and 1 ng per mL FGF-2 (Genzyme, Cambridge, Mass.) or 5% BCS and 10 ng per mL VEGF (Genzyme, Cambridge, Mass.) for BCE cells, 5% or 10% BCS for BAE cells, 5% BCS for BVSM cells, and 5% FCS for BxPC-3, HT1080 and 3T3 cells. Cells were cultured for 0 to 72 hr in 10% CO2 at 37° C. then dispersed in trypsin/EDTA (GibcoBRL, Granc Island, N.Y.), resuspended in Coulter balanced electrolyte solution and counted with a Z1 Coulter counter (Coulter Corp., Miami, Fla.) in all experiments there were two control wells containing DMEM with 1% GPS and either 5% BCS for BCE cells, 2% BCS for BAE and BVSM cells, or 2% FCS for BxPC-3, HT1080 and 3T3 cells. […]

These results are taken from patent US7498406B2, “Substantially cell membrane impermeable compound and use thereof” (priority 1999, dated 2009).

On to `NC(CCC(=O)NC(CSCC(=O)Nc1ccc([As]=O)cc1)C(=O)NCC(=O)O)C(=O)O` (stereo not shown) [GSAO, 4-(N-(S-glutathionylacetyl)amino)-phenylarsenoxide], for which, in the assay on HDMVE cells, the “effect on tube formation” value is “Effects were apparent at 0.1 μM concentration and marked at 100 μM”. Besides, the “inhibition of the rate of Lewis lung tumour growth” value with Lewis lung tumours is given as ~70%. Moreover, in the assay on Lewis lung tumours (day 12 of treatment), the “GSAO/GSAA Lewis lung tumour volume ratio” value is recorded as 0.29. Besides, the half-inhibitory concentration (IC50) with BAE (Bos taurus, 72 h, 10% BCS, >90% confluent) is ~10 µM.
Regarding `N[C@@H](CCC(=O)N[C@@H](CSCC(=O)Nc1ccc([As](=O)(O)O)cc1)C(=O)NCC(=O)O)C(=O)O` [GSAA, 4-(N-(S-glutathionylacetyl)amino)phenylarsonic acid, reference compound], in the assay on HDMVE cells, the “effect on tube formation” value was “no apparent effect on tube formation”. Moreover, in the assay on Lewis lung tumours, the “inhibition of the rate of Lewis lung tumour growth” value is given as “no effect”. In the assay on BAE (not shown), the “effect on viability of BAE cells” value is recorded as “did not effect either proliferation or viability”.
